The results in this text go back to patent US8383814B2, “Substituted tetrahydropyran spiro pyrrolidinone and piperidinone, preparation and therapeutic use thereof” (Sanofi, priority 2008, dated 2013).

Assay [1] deals with T1, rhesus (Macacca Mulatta) H3 receptor (Macaca mulatta, UniProt Q865E1).
T1 construct: pcDNA5/FRT/TO (Invitrogen) containing the rhesus monkey (Macacca Mulatta) 445 amino acid H3 receptor
The experiment in a line: Rhesus H3 radioligand binding assay ([3H]-methylhistamine displacement, WGA SPA beads). The settings on record: [3H]-methylhistamine 2 nM; membranes of Flp-In T-REx 293 cells expressing rhesus H3; Cheng-Prusoff. Further details: species or system rhesus monkey (Macacca Mulatta). On the procedure:
(§1) Rhesus H3 membranes were prepared from the Flp-In T-REx 293 Cell Line (Invitrogen) stably transfected with pcDNA5/FRT/TO (Invitrogen) containing the rhesus monkey (Macacca Mulatta) 445 amino acid H3 receptor. (Genbank #AY231164). Stably transfected cultures were amplified in tissue culture flasks by standard tissue culture methods and induced to express rhesus H3 by exposure to 500 ng/ml tetracycline (Cellgro) for 24 hours. After induction, cells were dissociated from flasks utilizing Cell Stripper (Cellgro). Cells were centrifuged (1K×g, 5 min) and pellet frozen in an ethanol-dry ice bath to disrupt cell membranes. Frozen cell pellet was re-suspended in 5 mM HEPES (pH 7.4, Invitrogen) at 10 ml/1000 cm2 of harvested cells. The cell suspension was drawn through an 18 gauge needle (2-3×) followed by a 23 gauge needle (2-3×) to further disrupt cell membranes. The cell suspension was centrifuged (40K×g, 30 min). Cell membrane pellet was re-suspended in 5 mM HEPES (pH 7.4, Invitrogen) at a final protein concentration of 10 mg/ml. Rhesus H3 membranes were stored under liquid nitrogen prior to use in [3H]-Methylhistamine and GTP S radioligand binding assays.
Rhesus H3 radioligand binding assay was performed using rhesus H3 receptor membranes (prepared as described above), [3H]-Methylhistamine (Perkin Elmer) and WGA SPA beads (wheat germ agglutinin scintillation proximity assay) beads (Amersham). The assay was performed in 96-well Opti-Plates (Packard). Each reaction contained 50 μl rhesus H3 membranes (20-30 μg total protein), 50 μl WGA SPA beads (0.1 μg) and 50 μl of 83 Ci/mmol [^3H]-Methylhistamine (final concentration 2 nM) and 50 μl of tested compound. The compounds of this invention and/or vehicle were diluted with binding buffer from 10 mM DMSO stocks. Assay plates were sealed with TopSeal (Perkin Elmer) and mixed on shaker (25° C., 1 hour). Assay plates were read on TopCount scintillation counter (Packard). Results were analyzed by Hill transformation and Ki values were determined by Cheng-Prusoff equation.

For the next assay, the system named is rhesus H3 receptor. Description: GTPγS radioligand binding assay: inhibition of rhesus H3 constitutive functional activity in cell membranes (inverse agonism). It counts as biochemical, rhesus monkey (Macacca Mulatta). Further details: concentration or dose not given beside the values. The conditions noted are these: negative value = below basal level. As for the experimental part: as §1

T1 sequence (Q865E1 1-445): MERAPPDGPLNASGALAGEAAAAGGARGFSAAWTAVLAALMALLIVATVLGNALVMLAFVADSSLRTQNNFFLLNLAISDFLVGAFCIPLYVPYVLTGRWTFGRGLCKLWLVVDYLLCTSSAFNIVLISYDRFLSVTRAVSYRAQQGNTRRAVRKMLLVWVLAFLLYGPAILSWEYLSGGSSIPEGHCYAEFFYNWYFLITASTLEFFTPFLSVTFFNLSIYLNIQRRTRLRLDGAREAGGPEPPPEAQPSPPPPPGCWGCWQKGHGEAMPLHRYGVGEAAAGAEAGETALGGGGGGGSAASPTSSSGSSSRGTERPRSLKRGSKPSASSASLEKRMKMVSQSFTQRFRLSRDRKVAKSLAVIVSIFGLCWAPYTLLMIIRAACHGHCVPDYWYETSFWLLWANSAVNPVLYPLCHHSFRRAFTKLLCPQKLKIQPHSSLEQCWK

As for `C[C@H]1CCCCN1C1CCN(c2ccc(N3CCC4(CCOCC4)C3=O)c(C(F)(F)F)c2)CC1` [Example 23, 2-[4-((2S,3′S)-2-Methyl-[1,4]bipiperidinyl-1′-yl)-2-trifluoromethyl-phenyl]-8-oxa-2-aza-spiro[4.5]decan-1-one], affinity in assay [1] was put at a Ki of 1.5 nM. Further, the “Inverse Agonism: % inhibition of Basal GTPγS binding in Rhesus H3” value in the assay with rhesus H3 receptor is recorded as −29%.
Turning to `C[C@H]1CCCN1C1CCN(c2ccc(N3CCC4(CCOCC4)C3=O)c(C(F)(F)F)c2)CC1` [Example 21, 2-{4-[4-((2S,3′S)-2-Methyl-pyrrolidin-1-yl)-piperidin-1-yl]-2-trifluoromethyl-phenyl}-8-oxa-2-aza-spiro[4.5]decan-1-one], the Ki in assay [1] came out at 0.42 nM. For the same compound, the “Inverse Agonism: % inhibition of Basal GTPγS binding in Rhesus H3” value in the assay on rhesus H3 receptor is recorded as −19%.
For `C[C@@H]1CCCN1[C@H]1CCN(c2ccc(N3CCCC4(CCOCC4)C3=O)cc2)C1` [Example 34, 2-[4-((2R,3′S)-2-Methyl-[1,3′]bipyrrolidinyl-1′-yl)-phenyl]-9-oxa-2-aza-spiro[5.5]undecan-1-one] the same measures were 1.7 nM and −12%.
